Source: patent US7063946B2, “Methods, reagents, kits and apparatus for protein function analysis” (Meso Scale Technologies, LLC., priority 2001, dated 2006)

Legend:
Assay in all cases: Kinase inhibitor profiling, autophosphorylation
Type in all cases: biochemical
Fgfr4 = molecular target: T1, Fgfr4 (Mus musculus, UniProt Q03142)
T1 construct: specificity data for proteins generated from a library of eighteen full-length clones; biotin on random lysines (biotin-Lys-tRNA); host or cells: rabbit reticulocyte lysate, coupled transcription/translation (TnT, Promega)

EphB4 = molecular target: T2, EphB4 (Mus musculus, UniProt P54761)
T2 construct: specificity data for proteins generated from a library of eighteen full-length clones; host or cells: rabbit reticulocyte lysate, TnT coupled in vitro transcription/translation (cell-free)
T2 sequence (P54761 16-987): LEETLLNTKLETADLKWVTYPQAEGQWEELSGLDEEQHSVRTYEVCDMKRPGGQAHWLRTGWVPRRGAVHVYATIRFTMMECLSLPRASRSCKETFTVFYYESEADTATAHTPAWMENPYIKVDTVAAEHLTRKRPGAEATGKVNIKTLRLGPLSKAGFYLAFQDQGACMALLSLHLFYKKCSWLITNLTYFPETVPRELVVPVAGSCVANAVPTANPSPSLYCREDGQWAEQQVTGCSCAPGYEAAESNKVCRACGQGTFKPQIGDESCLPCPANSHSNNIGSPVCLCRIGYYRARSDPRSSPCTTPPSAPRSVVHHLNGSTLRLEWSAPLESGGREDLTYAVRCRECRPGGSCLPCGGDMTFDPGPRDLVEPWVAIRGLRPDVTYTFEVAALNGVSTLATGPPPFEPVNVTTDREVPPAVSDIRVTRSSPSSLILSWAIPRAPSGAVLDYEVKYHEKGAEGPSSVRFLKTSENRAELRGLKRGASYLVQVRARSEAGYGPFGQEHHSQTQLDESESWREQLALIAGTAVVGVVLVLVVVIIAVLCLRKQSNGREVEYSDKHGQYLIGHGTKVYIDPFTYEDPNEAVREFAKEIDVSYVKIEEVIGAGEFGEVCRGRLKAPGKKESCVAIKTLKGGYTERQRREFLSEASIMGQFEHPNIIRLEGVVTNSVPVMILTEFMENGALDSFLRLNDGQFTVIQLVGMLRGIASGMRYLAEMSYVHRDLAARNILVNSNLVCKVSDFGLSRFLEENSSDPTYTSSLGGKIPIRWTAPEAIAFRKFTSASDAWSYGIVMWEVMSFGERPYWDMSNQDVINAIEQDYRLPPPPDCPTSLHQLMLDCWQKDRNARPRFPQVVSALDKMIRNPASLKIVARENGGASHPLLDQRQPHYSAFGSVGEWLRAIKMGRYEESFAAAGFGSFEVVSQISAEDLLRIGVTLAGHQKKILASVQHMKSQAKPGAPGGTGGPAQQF

HCK = molecular target: T3, HCK (Homo sapiens, UniProt P08631)
T3 construct: specificity data for proteins generated from a library of eighteen full-length clones; host or cells: rabbit reticulocyte lysate, TnT coupled in vitro transcription/translation (cell-free)

Kit = molecular target: T4, Kit (Mus musculus, UniProt P05532)
T4 construct: specificity data for proteins generated from a library of eighteen full-length clones; biotin on random lysines (biotin-Lys-tRNA); host or cells: rabbit reticulocyte lysate, coupled transcription/translation (TnT, Promega)

FGFR2 = molecular target: T5, FGFR2 (Mus musculus, UniProt P21803)
T5 construct: specificity data for proteins generated from a library of eighteen full-length clones; host or cells: rabbit reticulocyte lysate, TnT coupled in vitro transcription/translation (cell-free)

CSK = molecular target: T6, CSK (Homo sapiens, UniProt P41240)
T6 construct: specificity data for proteins generated from a library of eighteen full-length clones; host or cells: rabbit reticulocyte lysate, TnT coupled in vitro transcription/translation (cell-free)
T6 sequence (P41240 whole entry): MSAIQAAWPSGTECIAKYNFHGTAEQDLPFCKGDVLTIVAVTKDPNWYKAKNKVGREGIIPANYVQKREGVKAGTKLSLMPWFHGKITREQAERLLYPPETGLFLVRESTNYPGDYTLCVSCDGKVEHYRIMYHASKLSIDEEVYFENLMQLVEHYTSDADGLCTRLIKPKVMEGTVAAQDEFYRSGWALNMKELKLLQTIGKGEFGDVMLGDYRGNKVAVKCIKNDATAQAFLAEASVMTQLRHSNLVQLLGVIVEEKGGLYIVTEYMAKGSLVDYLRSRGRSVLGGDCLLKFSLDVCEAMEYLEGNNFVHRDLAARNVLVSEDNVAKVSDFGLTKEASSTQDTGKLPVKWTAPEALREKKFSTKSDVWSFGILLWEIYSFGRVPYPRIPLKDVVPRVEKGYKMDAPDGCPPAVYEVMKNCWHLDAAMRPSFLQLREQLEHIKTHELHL

T3 sequence (P08631 whole entry): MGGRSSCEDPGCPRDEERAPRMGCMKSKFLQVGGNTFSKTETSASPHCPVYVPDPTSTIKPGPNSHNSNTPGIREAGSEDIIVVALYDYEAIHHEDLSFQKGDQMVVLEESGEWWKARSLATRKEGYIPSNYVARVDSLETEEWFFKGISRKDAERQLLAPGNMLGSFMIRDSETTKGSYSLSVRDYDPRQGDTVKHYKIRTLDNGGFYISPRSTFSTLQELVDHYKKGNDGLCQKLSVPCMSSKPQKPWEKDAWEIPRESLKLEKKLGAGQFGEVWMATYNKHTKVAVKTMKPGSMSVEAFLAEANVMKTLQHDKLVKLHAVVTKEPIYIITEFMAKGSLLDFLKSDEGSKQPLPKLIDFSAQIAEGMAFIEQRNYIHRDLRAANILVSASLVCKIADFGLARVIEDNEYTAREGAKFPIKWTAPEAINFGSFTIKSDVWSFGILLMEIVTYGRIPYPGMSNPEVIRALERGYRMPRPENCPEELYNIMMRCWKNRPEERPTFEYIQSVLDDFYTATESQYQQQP
T5 sequence (P21803 22-821): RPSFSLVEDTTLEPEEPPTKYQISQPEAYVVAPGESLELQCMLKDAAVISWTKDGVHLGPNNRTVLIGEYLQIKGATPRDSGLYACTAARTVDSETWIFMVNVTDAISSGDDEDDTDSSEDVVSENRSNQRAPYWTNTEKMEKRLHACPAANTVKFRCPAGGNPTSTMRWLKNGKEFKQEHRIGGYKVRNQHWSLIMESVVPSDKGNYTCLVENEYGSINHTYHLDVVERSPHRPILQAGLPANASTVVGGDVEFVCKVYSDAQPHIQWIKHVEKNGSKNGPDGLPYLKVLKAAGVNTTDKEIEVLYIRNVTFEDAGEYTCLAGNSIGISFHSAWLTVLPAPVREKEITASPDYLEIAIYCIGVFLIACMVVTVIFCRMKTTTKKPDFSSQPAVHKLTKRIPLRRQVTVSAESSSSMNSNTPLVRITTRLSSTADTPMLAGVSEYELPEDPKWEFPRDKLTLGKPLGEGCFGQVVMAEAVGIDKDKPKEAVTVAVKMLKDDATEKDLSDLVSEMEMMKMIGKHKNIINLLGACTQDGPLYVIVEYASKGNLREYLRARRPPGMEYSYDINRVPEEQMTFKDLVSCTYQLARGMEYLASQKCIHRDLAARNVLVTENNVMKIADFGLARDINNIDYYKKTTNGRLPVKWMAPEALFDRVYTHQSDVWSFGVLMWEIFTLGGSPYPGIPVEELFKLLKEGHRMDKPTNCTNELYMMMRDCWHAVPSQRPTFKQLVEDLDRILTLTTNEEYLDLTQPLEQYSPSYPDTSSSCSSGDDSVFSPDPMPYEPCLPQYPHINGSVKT
T1 sequence (Q03142 17-799): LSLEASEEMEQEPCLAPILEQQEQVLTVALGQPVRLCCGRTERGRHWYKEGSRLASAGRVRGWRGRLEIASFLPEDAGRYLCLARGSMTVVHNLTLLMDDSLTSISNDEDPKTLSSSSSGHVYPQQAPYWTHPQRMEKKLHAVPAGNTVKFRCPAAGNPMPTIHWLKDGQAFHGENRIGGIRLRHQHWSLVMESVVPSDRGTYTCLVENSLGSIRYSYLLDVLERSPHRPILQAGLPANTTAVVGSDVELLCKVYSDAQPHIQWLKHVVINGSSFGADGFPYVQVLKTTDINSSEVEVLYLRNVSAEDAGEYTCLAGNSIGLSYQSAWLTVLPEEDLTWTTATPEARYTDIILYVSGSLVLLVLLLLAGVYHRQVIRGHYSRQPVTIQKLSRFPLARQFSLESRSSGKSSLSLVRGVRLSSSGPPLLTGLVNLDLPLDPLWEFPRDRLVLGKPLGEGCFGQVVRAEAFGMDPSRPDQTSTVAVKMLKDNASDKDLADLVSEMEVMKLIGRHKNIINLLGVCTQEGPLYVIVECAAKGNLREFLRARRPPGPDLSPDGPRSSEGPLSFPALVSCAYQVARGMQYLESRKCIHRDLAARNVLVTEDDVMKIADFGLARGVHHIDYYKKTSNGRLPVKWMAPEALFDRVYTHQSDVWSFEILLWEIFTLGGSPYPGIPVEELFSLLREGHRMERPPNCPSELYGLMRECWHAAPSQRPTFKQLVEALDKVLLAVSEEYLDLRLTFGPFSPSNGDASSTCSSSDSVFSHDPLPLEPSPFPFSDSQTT
T4 sequence (P05532 25-979): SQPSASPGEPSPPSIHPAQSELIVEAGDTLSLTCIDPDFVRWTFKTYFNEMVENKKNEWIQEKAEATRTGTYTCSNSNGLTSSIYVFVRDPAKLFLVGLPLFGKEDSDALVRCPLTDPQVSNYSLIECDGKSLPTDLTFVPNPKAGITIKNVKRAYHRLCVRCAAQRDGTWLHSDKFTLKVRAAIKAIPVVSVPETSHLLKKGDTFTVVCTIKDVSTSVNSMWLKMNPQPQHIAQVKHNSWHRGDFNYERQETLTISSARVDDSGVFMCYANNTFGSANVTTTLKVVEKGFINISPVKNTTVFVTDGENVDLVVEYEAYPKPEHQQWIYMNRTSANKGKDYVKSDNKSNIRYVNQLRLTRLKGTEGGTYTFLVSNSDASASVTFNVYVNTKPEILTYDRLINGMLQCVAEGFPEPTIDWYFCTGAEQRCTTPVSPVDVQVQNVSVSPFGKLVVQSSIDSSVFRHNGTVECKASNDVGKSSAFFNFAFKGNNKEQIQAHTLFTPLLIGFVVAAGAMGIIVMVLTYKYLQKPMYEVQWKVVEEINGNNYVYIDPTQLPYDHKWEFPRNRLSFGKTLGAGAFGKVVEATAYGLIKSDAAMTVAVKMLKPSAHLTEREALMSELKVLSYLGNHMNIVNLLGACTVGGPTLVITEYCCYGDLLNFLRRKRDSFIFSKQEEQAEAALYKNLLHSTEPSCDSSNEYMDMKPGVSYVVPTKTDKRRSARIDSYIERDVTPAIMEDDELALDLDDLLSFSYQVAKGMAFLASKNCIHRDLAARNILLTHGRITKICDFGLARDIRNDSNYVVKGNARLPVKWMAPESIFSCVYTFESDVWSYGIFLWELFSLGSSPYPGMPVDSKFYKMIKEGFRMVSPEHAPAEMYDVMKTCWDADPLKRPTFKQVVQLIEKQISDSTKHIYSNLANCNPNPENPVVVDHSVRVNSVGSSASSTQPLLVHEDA

| Compound | Inhibition specificity towards Autophosphorylation at 10X IC50, Fgfr4 (Fgfr4) | Inhibition specificity towards Autophosphorylation at 10X IC50, Ephb4 (EphB4) | Inhibition specificity towards Autophosphorylation at 10X IC50, HCK (HCK) | Inhibition specificity towards Autophosphorylation at 10X IC50, Kit (Kit) | Inhibition specificity towards Autophosphorylation at 10X IC50, FGFR2 (FGFR2) | Inhibition specificity towards Autophosphorylation at 10X IC50, CSK (CSK) |
| --- | --- | --- | --- | --- | --- | --- |
| COC(=O)c1ccc(NCc2cc(O)ccc2O)cc1 [AG-957] | L (low inhibition (“L”=between 50–75% of the activity remaining)) | L (low inhibition (“L”=between 50–75% of the activity remaining)) | L (low inhibition (“L”=between 50–75% of the activity remaining)) | L (low inhibition (“L”=between 50–75% of the activity remaining)) | L (low inhibition (“L”=between 50–75% of the activity remaining)) | L (low inhibition (“L”=between 50–75% of the activity remaining)) |
| CC(C)(C)c1cc(C=C(C#N)C#N)cc(Br)c1O [AG-1024] | L (low inhibition (“L”=between 50–75% of the activity remaining)) | – | – | – | L (low inhibition (“L”=between 50–75% of the activity remaining)) | – |
| Cc1cc2ncc(-c3ccc(O)c(O)c3)nc2cc1C [AG-1433] | H (high inhibition (“H”=less than 25% of the activity remaining)) | H (high inhibition (“H”=less than 25% of the activity remaining)) | H (high inhibition (“H”=less than 25% of the activity remaining)) | H (high inhibition (“H”=less than 25% of the activity remaining)) | H (high inhibition (“H”=less than 25% of the activity remaining)) | H (high inhibition (“H”=less than 25% of the activity remaining)) |
| COc1c(C=O)c(O)cc2c1C(=O)c1ccccc1C2=O [Damnacanthal] | H (high inhibition (“H”=less than 25% of the activity remaining)) | H (high inhibition (“H”=less than 25% of the activity remaining)) | M (medium inhibition (“M”=between 25 to 50% of the activity remaining)) | H (high inhibition (“H”=less than 25% of the activity remaining)) | M (medium inhibition (“M”=between 25 to 50% of the activity remaining)) | M (medium inhibition (“M”=between 25 to 50% of the activity remaining)) |
| COc1cc2ncnc(Nc3ccc(Cl)cc3F)c2cc1OC [VEGFR inhibitor] | – | L (low inhibition (“L”=between 50–75% of the activity remaining)) | – | – | – | – |
| COc1cc2ncnc(Nc3ccc(O)cc3)c2cc1OC [WHI-P131] | – | – | – | L (low inhibition (“L”=between 50–75% of the activity remaining)) | – | – |
| Erbstatin analog | – | L (low inhibition (“L”=between 50–75% of the activity remaining)) | L (low inhibition (“L”=between 50–75% of the activity remaining)) | L (low inhibition (“L”=between 50–75% of the activity remaining)) | L (low inhibition (“L”=between 50–75% of the activity remaining)) | – |
